Tested on: human peripheral blood cells
Test: Immunostimulant activity: human lymphocyte proliferation revealed by BrdU labelling
Type: cell-based
Conditions: for % stimulation relative to the control: 3 days of culture, BrdU labelling
Procedure: The immunostimulant activity is tested in the following way: human peripheral blood cells are cultured in the presence of an RPMI-type culture medium supplemented with L-glutamine (2 mM), penicillin/streptomycin (50 μg/50 IU/ml) and foetal calf serum (10%). The C-glycoside derivatives are added at various concentrations (10 to 0.05 mM), as is phyto-haemagglutinin (PHA at 5 […]), a positive control for lymphocyte proliferation.

Question: `CC(=O)C[C@@H]1O[C@H](CO)[C@H](O)[C@H](O)[C@H]1O` [Compound 1, 1-(C-β-galactopyranosyl)propan-2-one] was tested. Which “% stimulation relative to the control” value (0.05 mM) did it give?
Answer: 91%

Question: And the “% stimulation relative to the control” value (0.1 mM)?
Answer: 89%

Question: What about the “% stimulation relative to the control” value (0.5 mM) of the same compound?
Answer: 130%

Question: What about the “% stimulation relative to the control” value (1 mM) of the same compound?
Answer: 138%

Question: And the “% stimulation relative to the control” value (5 mM)?
Answer: 261%

Question: And the “% stimulation relative to the control” value (10 mM)?
Answer: 271%

Question: And the “human lymphocyte proliferation (result in words)” value (all the concentrations tested (10 to 0.05 mM))?
Answer: tendency to stimulate human lymphocyte proliferation at all the concentrations tested

From patent US20140220081A1, “USE OF A GALACTOSE-DERIVED C-GLYCOSIDE COMPOUND AS AN AGENT FOR ACTIVATING AND REGULATING CUTANEOUS IMMUNITY” (L'OREAL, priority 2006, published 2014)
